The values that follow come from US8017401B2, “Method for determining redox activity and screening compounds based on redox activity” (State of Oregon acting by and through the State Board of …, priority 2005, dated 2011).

Read-outs that look alike come from different tables or passages of the source.

The nature of series [1]: Reaction of NBD-Cl with KO2: stopped-flow kinetics, absorbance and fluorescence calibration. In kind it is physicochemical.
Series [2] concerns the target xanthine-xanthine oxidase reaction (Homo sapiens, UniProt P47989). Nature of the series: Superoxide measurement in the xanthine-xanthine oxidase reaction. In kind it is biochemical.
Series [3] in a line: Redox activity by reaction with photo-excited dye under aerobic conditions (probe reduction at 470 nm and dye photo-bleaching). In kind it is physicochemical. The note with it: for redox activity (electron donor or electron acceptor): conclusion from the photo-excited dye assay of the respective example.
Series [4] can be described thus: Redox activity of activators and inhibitors of membrane-bound transport proteins (overview statement). Format: physicochemical. The following applies: activators and inhibitors of the sarcoplasmic reticulum calcium release channel; no reference given.
For series [5] the following is noted: modulators of L-type calcium channel, sodium channel, mitochondrial ATP-dependent potassium channel; references 1-3; cited from earlier work.
Series [6] relates to sarcoplasmic reticulum Ca^2+ release channel. The note with it: cited from earlier work.
Setting [7] is: 10 μM erythrosin, 50 μM NBD-Cl, 80% dimethyl sulfoxide / 20% 1 mM Tris-HCl, pH 7.4, compound 200 μM (diethyl benzocaine 2 mM) vs control.
[8] abbreviates: 10 μM methylene blue, 100 μM NADH, 50 μM NBD-Cl, 10 mM Tris-HCl in water, pH 7.4, doxorubicin 25 and 50 μM vs zero.

Sequence of xanthine-xanthine oxidase reaction (P47989 whole entry): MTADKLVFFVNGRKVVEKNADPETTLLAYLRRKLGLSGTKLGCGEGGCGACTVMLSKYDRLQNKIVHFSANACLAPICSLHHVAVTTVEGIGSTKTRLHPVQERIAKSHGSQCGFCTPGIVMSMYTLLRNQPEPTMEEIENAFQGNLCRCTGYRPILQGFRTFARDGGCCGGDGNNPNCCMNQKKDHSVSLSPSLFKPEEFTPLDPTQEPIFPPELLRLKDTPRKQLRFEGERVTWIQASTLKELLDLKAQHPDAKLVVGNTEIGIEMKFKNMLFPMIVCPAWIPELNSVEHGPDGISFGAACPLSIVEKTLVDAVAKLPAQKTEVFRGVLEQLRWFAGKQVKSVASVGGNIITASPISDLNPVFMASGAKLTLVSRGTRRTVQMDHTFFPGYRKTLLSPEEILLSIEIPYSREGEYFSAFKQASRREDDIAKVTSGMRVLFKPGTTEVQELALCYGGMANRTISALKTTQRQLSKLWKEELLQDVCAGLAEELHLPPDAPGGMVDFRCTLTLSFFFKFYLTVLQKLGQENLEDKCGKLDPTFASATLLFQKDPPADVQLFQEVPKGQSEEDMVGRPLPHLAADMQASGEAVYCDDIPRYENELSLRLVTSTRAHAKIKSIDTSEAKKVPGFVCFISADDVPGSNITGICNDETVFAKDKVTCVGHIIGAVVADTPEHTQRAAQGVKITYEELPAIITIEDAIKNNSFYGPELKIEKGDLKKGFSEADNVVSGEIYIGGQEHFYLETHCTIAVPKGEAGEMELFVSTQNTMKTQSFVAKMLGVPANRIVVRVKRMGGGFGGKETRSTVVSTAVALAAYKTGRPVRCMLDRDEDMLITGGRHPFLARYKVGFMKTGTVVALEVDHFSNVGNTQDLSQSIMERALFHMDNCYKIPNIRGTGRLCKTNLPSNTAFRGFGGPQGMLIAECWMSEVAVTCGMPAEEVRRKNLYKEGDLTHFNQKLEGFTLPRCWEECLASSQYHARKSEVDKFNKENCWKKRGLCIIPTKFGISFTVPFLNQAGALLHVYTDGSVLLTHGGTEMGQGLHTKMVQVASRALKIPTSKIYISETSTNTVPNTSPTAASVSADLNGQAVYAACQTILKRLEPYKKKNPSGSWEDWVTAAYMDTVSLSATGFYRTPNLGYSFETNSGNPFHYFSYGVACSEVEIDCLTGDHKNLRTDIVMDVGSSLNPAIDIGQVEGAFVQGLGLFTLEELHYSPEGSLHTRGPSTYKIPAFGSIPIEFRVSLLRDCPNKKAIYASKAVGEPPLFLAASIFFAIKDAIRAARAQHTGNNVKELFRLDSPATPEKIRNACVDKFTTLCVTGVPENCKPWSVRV

Take “2,3-bis(2-methoxy-4-nitro-5-sulphophenyl)-5-[(phenylamino)carbonyl]-2H-tetrazolium hydroxide [XTT]”: in series [1], the “second-order rate constants for reduction by superoxide” value is 8.59±0.81×10^4 M^−1s^−1. Further, the “effect of the probe on the xanthine-xanthine oxidase reaction rate” value in series [2] was “about a two-fold increase”. For the same compound, the “Superoxide at 470 nm (initial rate of superoxide formation)” value in series [2] (pH 7.4) was determined as 0.225 ± 0.010.

On to `COc1cc(-c2ccc(-n3nc(-c4ccccc4)n[n+]3-c3ccc([N+](=O)[O-])cc3)c(OC)c2)ccc1-n1nc(-c2ccccc2)n[n+]1-c1ccc([N+](=O)[O-])cc1` [NBT, nitroblue tetrazolium], for which the “Superoxide at 550 nm (initial rate of superoxide formation)” value in series [2] (pH 7.4) worked out at 0.038 ± 0.002.

For the compound `CC[C@H]1[C@@H]2C[C@H]3[C@@H]4N(C)c5ccccc5[C@]45C[C@@H]([C@@H]2[C@H]5O)N3[C@@H]1O` [ajmalin], in series [3] (setting [7]), the “rate of NBD-Cl reduction (increasing absorbance at 470 nm)” value is “increased”. For the same compound, the “relative degree of electron donor activity” value in series [3] (10 μM erythrosin, 50 μM NBD-Cl, 80% dimethyl sulfoxide, from level of increase of NBD-Cl reduction rate) was “stronger electron donor than diethyl benzocaine”. The “redox activity (electron donor or electron acceptor)” value (shortened to “redox activity”) in series [3] was “electron donors”.

As for `CC(C)COCC(CN(Cc1ccccc1)c1ccccc1)N1CCCC1` (stereo not shown) [bepridil], the “rate of XTT reduction (increasing absorbance at 470 nm)” value in series [3] (10 μM eosin, 50 μM XTT, 1 mM Tris-HCl in water, pH 7.4, bepridil 20 and 200 μM vs zero) was “increased”. Also, the “redox activity” value in series [3] is recorded as “electron donor”.

For the compound `Cn1c(=O)c2c(ncn2C)n(C)c1=O` [caffeine], the “redox activity” value in series [4] was “electron acceptors”.

In the case of `N[C@@H](CS)C(=O)O` [cysteine], in series [4], the “redox activity” value was “electron donors”.

In the case of `N[C@@H](CSSC[C@H](N)C(=O)O)C(=O)O` [cystine], the “redox activity” value in series [4] is reported as “electron acceptors”.

Turning to `CN(C)C(=O)/N=N/C(=O)N(C)C` [diamide], in series [4], the “redox activity” value is recorded as “electron acceptors”.

On to `COc1cccc2c1C(=O)c1c(O)c3c(c(O)c1C2=O)C[C@@](O)(C(=O)CO)C[C@@H]3O[C@H]1C[C@H](N)[C@H](O)[C@H](C)O1` [doxorubicin], for which, in series [3] (setting [8]), the “rate of NBD-Cl reduction (increasing absorbance at 470 nm)” value is on record as “decreased” and the “rate of methylene blue bleaching (decreasing absorbance at 663 nm)” value is reported as “decreased”. Moreover, the “redox activity” value in series [3] is “electron acceptor”. Also, the “redox activity” value in series [4] was “electron acceptors”.

For `N[C@@H](CCC(=O)N[C@@H](CS)C(=O)NCC(=O)O)C(=O)O` [glutathione], in series [4], the “redox activity” value is reported as “electron donors”.

As to `O=C1c2c(O)ccc(O)c2C(=O)c2c(NCCNCCO)ccc(NCCNCCO)c21` [mitoxantrone], the “redox activity” value in series [4] is on record as “electron acceptors”.

Take `Oc1ccc(-c2[o+]c3cc(O)cc(O)c3cc2O)cc1` [pelargonidine]: in series [5], the “redox activity” value was “electron acceptor”.

As for `CCN(CC)CCOC(=O)c1ccc(N)cc1` [procaine], the “redox activity” value in series [4] was “electron donors”.

Take `CCCCNc1ccc(C(=O)OCCN(C)C)cc1` [tetracaine]: in series [3] (setting [7]), the “rate of NBD-Cl reduction (increasing absorbance at 470 nm)” value was “increased”. Besides, the “redox activity” value in series [3] and in series [4] was “electron donors” in each case.

diethyl benzocaine: the “redox activity” value was “electron donor” in series [5] and “electron donors” in series [3]. Also, the “rate of NBD-Cl reduction (increasing absorbance at 470 nm)” value in series [3] (setting [7]) was “increased”.

Take ryanodine: the “concentrations at which it is a specific activator of the calcium release channel” value in series [6] was 1 to 2 µM.
